In publication PMC12864978, “Covalent modification of a glutamic acid inspired by HaloTag technology” (Nature Communications, 2026):
Entries after “also recorded” stand apart in the source; their conditions may differ. Where two headings read alike, the source gives them in different places.

Assays:
DNA in Jurkat cells = experiment: Comet assay (DNA alkylation); conditions: 10 µM
[1] = Mouse liver microsomal stability; type: in vitro ADME
Source text: plotted as mean ± standard deviation, representative of 3 technical replicates ( N = 3). Unpaired, two-
Data were plotted as mean ± standard deviation, representative of 3 technical replicates in the presence

[2] = system: Rheb localisation in PA-TU-8902 cells; experiment: Immunofluorescence staining of Rheb; type: cell-based, human; conditions: 5 µM, overnight
Protocol: Immunostaining: compound-treated PA-TU-8902 cells were washed once with cold PBS, fixed with 3.7% paraformaldehyde in PBS by incubation at room temperature for 10 min and permeabilised with 0.3% Triton X-100 in PBS by incubation at room temperature for 15 min. […] After washing with PBS-T three times, PBS-incubated cells were imaged with Observer Z1 (Carl Zeiss, Germany) with a 63× oil objective.

[3] = molecular target: PDEδ in Jurkat cell lysates (Homo sapiens, UniProt O43924); experiment: In-lysate covalent modification of PDEδ (anti-PDEδ immunoblot band shift)
[4] = Compound stability in aqueous buffers; type: physicochemical
Protocol: Compound (1 mM) was incubated with the respective buffers (HEPES 20 mM, 150 mM NaCl, pH = 7.5; 0.2 M sodium acetate buffer, pH = 5.6; 0.2 M sodium citrate buffer, pH = 6.2; 0.2 M potassium phosphate buffer, pH = 7.4, 1 mM EDTA, with or without 10 mM GSH), with 1% DMSO adjusted for all conditions. […] Per cent (%) compound remaining in the solution was estimated by the ratio of areas under the curve, and data plotted were fitted to pseudo-1st kinetics in the calculation of rate constants (k) and half-lives (t1/2), where k is the negative slope of a linear regression of In (% compound remaining) over time. Half-lives (t1/2) in respective buffers and half-lives for GSH adduct formation (t1/2 GSH) were calculated with the following equations:1 t1/2=In2/k 2 kGSH=ktotalconsumptioninphosphatebufferinpresenceofGSH−k(phosphatebufferinabsenceofGSH) 3 t1/2GSH=In2/k(GSH) […]
a, Percentage (%) of compound remaining was monitored by HPLC-MS and data was fitted to pseudo-first kinetics in calculation of rate constants (k) and half-lives (t1/2) in respective buffers, where k is the negative slope of a linear regression of In (% compound remaining) over time and t 1/2 = In2/k. Initial […]
Initial GSH concentration =

PDEδ = PDEδ (Homo sapiens, UniProt O43924); experiment: Competitive fluorescence polarisation assay (FA probe displacement); type: binding; set-up: His tag; made in house; host or cells: Escherichia coli Rosetta (BL21DE3), pET plasmids
[5] = system: panel of human cell lines; experiment: Cytotoxicity screening in a panel of human cell lines; type: cell-based; conditions: concentrations up to 25 µM
Protocol: Real-time cell analysis (RTCA) was conducted using an Incucyte S3 live-cell analysis system (Sartorius AG, Germany). Adherent cell lines were seeded at 5 × 10³ cells per well in 96-well plates containing 100 µl of culture medium and incubated overnight at 37 °C with 5% CO₂. Following attachment overnight, the medium was replaced with fresh medium containing test compounds, with all conditions adjusted to contain 0.5% DMSO. […] Phase-contrast images (2 images per well) were automatically captured at 2-h intervals until control wells (DMSO-treated) reached full confluency. Cell growth was quantified using the instrument’s integrated Basic Analyser module by applying a confluence mask to calculate the percentage of phase area confluence. For dose-response assessment, confluence values at 72 h post-treatment were normalised to the DMSO control and analysed using GraphPad Prism 9.5.1 (GraphPad Software, USA). Dose-response curves were generated and fitted via four-parameter variable slope nonlinear regression to determine cellular IC₅₀ values.
representative of biological replicates n = 3.
comet images for each condition were shown.
time live-cell imaging by Incucyte.
Source data are provided as […]

Cc1ccc(-n2nc3c(=O)n(CCCCS(=O)(=O)N(CCc4cccc(CCBr)c4)CC4CCNCC4)nc(C)c3c2C)cc1 [6a]
off-target effects such as DNA alkylation (Comet assay) (DNA in Jurkat cells): not observed | CLhep predicted ([1]; liver microsomes, translated from intrinsic clearance, mouse, read-out: in vivo clearance (simplified well-stirred model) (converted)): ~66.7 mL/min/kg | microsomal stability in the absence of co-factor NADPH ([1]; mouse liver microsomes): metabolically stable | microsomal CLint ([1]; mouse liver microsomes 0.5 mg/ml, + NADPH, read-out: intrinsic clearance): 117 µL/min/mg | time to almost complete metabolism ([1]; mouse, liver microsomes, + NADPH): ≤ 50 min | half-life ([1]; mouse, liver microsomes, + NADPH, read-out: half-life T1/2 in mouse liver microsomes): 0.197 h | cellular Rheb distribution [2]: visible and sustained redistribution of Rheb to endomembranes | in-lysate covalent modification of PDEδ on anti-PDEδ immunoblot ([3]; 10 µM for 2 h): upward shift of the band indicates covalent binding | Estimated % PDEδ labelling ([3]; 10 µM, 15 min): 33% | Estimated % PDEδ labelling ([3]; 10 µM, 15 min, listed as DeltaTag): approximately 33% | Estimated % PDEδ labelling ([3]; 10 µM, 30 min): 55% | Estimated % PDEδ labelling ([3]; 10 µM, 60 min): 60% | time to estimated full labelling of PDEδ ([3]; 50 µg cell lysates, 10 µM): ≤ 2 h | half-life at 1 mM ([4]; HEPES buffer, pH 7.5, 37 °C, compound 1 mM, read-out: half-life t1/2 in HEPES buffer (converted)): 480 h | half-life at 1 mM ([4]; acetate buffer, pH 5.6, 37 °C, read-out: half-life t1/2 in acetate buffer (converted)): 145 h | IC50 (PDEδ; 37 °C overnight): 6.5 ± 3.5 nM | IC50 (PDEδ; PDEδ 40 nM, FA probe 24 nM, room temperature overnight): 15.2 ± 8.6 nM | general cytotoxicity [5]: no general toxicity; also recorded: not observed
